From patent publication US11345711B2, “8,9-dihydroimidazo[1,2-a]pyrimido[5,4-e]pyrimidin-5(6H)-ones” (IMPACT THERAPEUTICS (SHANGHAI), INC, priority 2016, dated 2022) come the findings set out here.

Structures are written as SMILES. Read-outs that look alike come from different tables or passages of the source. A value given as a limit tells only on which side of the number the result lay.

The target in test [1] is Wee1 (h) (Homo sapiens, UniProt P30291). The test is described as follows: Wee1 kinase (h) detection method, [γ-33P]-ATP filter assay. The format is biochemical.
Wee1 (h), sequence (P30291 whole entry): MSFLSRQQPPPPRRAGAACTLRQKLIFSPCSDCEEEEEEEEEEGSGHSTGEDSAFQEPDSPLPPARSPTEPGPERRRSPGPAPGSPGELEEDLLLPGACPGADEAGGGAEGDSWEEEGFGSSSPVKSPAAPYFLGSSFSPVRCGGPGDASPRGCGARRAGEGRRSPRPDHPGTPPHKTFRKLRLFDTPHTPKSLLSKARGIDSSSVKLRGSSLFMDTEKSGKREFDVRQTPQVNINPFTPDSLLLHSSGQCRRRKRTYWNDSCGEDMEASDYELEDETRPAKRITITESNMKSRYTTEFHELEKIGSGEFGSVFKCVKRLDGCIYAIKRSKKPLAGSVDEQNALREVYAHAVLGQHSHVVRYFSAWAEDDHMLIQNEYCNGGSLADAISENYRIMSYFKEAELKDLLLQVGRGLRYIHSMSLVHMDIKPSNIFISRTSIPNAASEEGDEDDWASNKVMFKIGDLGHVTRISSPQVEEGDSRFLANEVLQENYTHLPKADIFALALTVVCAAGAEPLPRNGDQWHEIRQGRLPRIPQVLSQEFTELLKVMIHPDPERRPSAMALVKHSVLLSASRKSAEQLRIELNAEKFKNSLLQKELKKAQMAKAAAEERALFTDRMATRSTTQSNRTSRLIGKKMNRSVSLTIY
Test [2] has as its system LoVo cells. The test is described as follows: MTT based cell viability assay on LoVo cells. To be noted: Homo sapiens, LoVo, 72 h, 3 d, read-out: IC50, growth inhibition of LoVo cells. An outline of the steps: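 Inhibition of LoVo proliferation was derived as IC50 from a sigmoidal dose-response fit of cell survival. Readout was MTT (0.5 mg/mL, 4 h) with absorbance at 552/630/690 nm, after 3-day treatment at 37 °C. Eight-point series from 10 μM to 0.01 μM, DMSO control, 1% DMSO final.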

Test [3] deals with NCI-H1299 cells. The test is described as follows: MTT based cell viability assay on NCI-H1299 cells. Particulars: Homo sapiens, read-out: IC50, growth inhibition of NCI-H1299 cells. An outline of the steps:
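Viability read-out was MTT reduction (0.5 mg/mL, 4 h, absorbance 552/630/690 nm) after 3-day compound exposure at 37 °C of NCI-H1299 cells seeded at 1000 per well. Dilutions spanned 10 μM–0.01 μM in DMSO, final DMSO 1‰. Survival-versus-concentration curves were fitted sigmoidally to give IC50.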

The IC50 is the midpoint of a concentration-inhibition curve.

Regarding `Cc1cc(N2CCN(C)CC2)ccc1Nc1ncc2c(n1)N1CCN=C1N(c1c(F)cccc1Cl)C2=O` [Example 42, 6-(2-Chloro-6-fluorophenyl)-2-((2-methyl-4-(4-methylpiperazin-1-yl)phenyl)amino)-8,9-dihydroimidazo[1,2-a]pyrimido[5,4-e]pyrimidin-5(6H)-one], the “Inh. (%) of Wee1 kinase enzyme activity” value in test [1] (C 1 μm compound) is 19%. For the same compound, the IC50 in test [2] was more than 100000 nM; in test [3] (NCI-H1299 cells), more than 10000 nM.
With `Cc1cccc(C)c1N1C(=O)c2cnc(Nc3ccc(N4C[C@@H](C)N(C)[C@@H](C)C4)cc3)nc2N2CCN=C21` [Example 84, 6-(2,6-Dimethylphenyl)-2-((4-((3S,5R)-3,4,5-trimethylpiperazin-1-yl)phenyl)amino)-8,9-dihydroimidazo[1,2-a]pyrimido[5,4-e]pyrimidin-5(6H)-one], the “Inh. (%) of Wee1 kinase enzyme activity” value stood at 18% in test [1] (C 0.01 μm compound), 49% in test [1] (C 0.1 μm compound) and 93% in test [1] (C 1 μm compound). In addition, the IC50 amounted to 3060 nM in test [2] and 836 nM in test [3] (NCI-H1299 cells).
Take `CC(=O)N1Cc2cc(Nc3ncc4c(n3)N3CCN=C3N(c3c(F)cccc3Cl)C4=O)ccc2C2(CC2)C1` [Example 11, 6-(2-Chloro-6-fluorophenyl)-2-((2′-acetyl-2′,3′-dihydro-1′H-spiro[cyclopropane-1,4′-isoquinolin]-7′-yl)amino)-8,9-dihydroimidazo[1,2-a]pyrimido[5,4-e]pyrimidin-5(6H)-one]: the “Inh. (%) of Wee1 kinase enzyme activity” value in test [1] (C 0.01 μm compound) was found to be 23%; in test [1] (C 0.1 μm compound) it was 85%; in test [1] (C 1 μm compound), 97%. The IC50 was determined as 101 nM in test [2] and 705 nM in test [3] (NCI-H1299 cells).
Turning to `CN1CCN(c2c(Cl)cc(Nc3ncc4c(n3)N3CCN=C3N(c3c(F)cccc3Cl)C4=O)cc2Cl)CC1` [Example 122, 6-(2-Chloro-6-fluorophenyl)-2-((3,5-dichloro-4-(4-methylpiperazin-1-yl)phenyl)amino)-8,9-dihydroimidazo[1,2-a]pyrimido[5,4-e]pyrimidin-5(6H)-one], the “Inh. (%) of Wee1 kinase enzyme activity” value in test [1] (C 0.01 μm compound) is 20%; in test [1] (C 0.1 μm compound), 58%; in test [1] (C 1 μm compound), 91%. Further, the IC50 was 51.8 nM in test [2] and 334 nM in test [3] (NCI-H1299, NCI-H1299 cells).
Turning to `O=C1c2cnc(Nc3ccc(N4CCNCC4)c(CO)c3)nc2N2CCN=C2N1c1c(Cl)cccc1Cl` [Example 180, 6-(2,6-Dichlorophenyl)-2-((3-(hydroxymethyl)-4-(piperazin-1-yl)phenyl)amino)-8,9-dihydroimidazo[1,2-a]pyrimido[5,4-e]pyrimidin-5(6H)-one], the “Inh. (%) of Wee1 kinase enzyme activity” value in test [1] (C 1 μm compound) amounted to 96%. Further, the values for the 50% inhibitory concentration (IC50) in test [2] and in test [3] (NCI-H1299 cells) were 2380 nM and 2050 nM, respectively.
`COc1cc(Nc2ncc3c(n2)N2CCN=C2N(c2c(Cl)cccc2Cl)C3=O)cc(Br)c1N1CCN(C)CC1` [Example 157, 6-(2,6-Dichlorophenyl)-2-((3-bromo-5-methoxy-4-(4-methylpiperazin-1-yl)phenyl)amino)-8,9-dihydroimidazo[1,2-a]pyrimido[5,4-e]pyrimidin-5(6H)-one]: in test [1] (C 1 μm compound), the “Inh. (%) of Wee1 kinase enzyme activity” value was 91%. Also, the figures for the IC50 in test [2] and in test [3] (NCI-H1299 cells) were 38.6 nM and 222 nM, respectively.
With `Cc1cc(Nc2ncc3c(n2)N2CCN=C2N(c2c(F)cccc2Cl)C3=O)ccc1N1CCN(C)CC1` [Example 50, 6-(2-Chloro-6-fluorophenyl)-2-((3-methyl-4-(4-methylpiperazin-1-yl)phenyl)amino)-8,9-dihydroimidazo[1,2-a]pyrimido[5,4-e]pyrimidin-5(6H)-one], the “Inh. (%) of Wee1 kinase enzyme activity” value in test [1] (C 0.01 μm compound) worked out at 62%; in test [1] (C 0.1 μm compound), 95%; in test [1] (C 1 μm compound) it was 100%. Moreover, the IC50 was found to be 58.9 nM in test [2] and 229 nM in test [3] (NCI-H1299, NCI-H1299 cells).
With `CC(C)N1CCN(c2ccc(Nc3ncc4c(n3)N3CCN=C3N(c3c(Cl)cccc3Cl)C4=O)cc2)CC1` [Example 63, 6-(2,6-Dichlorophenyl)-2-((4-(4-isopropylpiperazin-1-yl)phenyl)amino)-8,9-dihydroimidazo[1,2-a]pyrimido[5,4-e]pyrimidin-5(6H)-one], the “Inh. (%) of Wee1 kinase enzyme activity” value in test [1] (C 0.01 μm compound) stood at 17%; in test [1] (C 0.1 μm compound) it was 76%; in test [1] (C 1 μm compound), 99%. The IC50 in test [2] was 76.8 nM; in test [3] (NCI-H1299 cells), 360 nM.
`Cc1cc(Nc2ncc3c(n2)N2CCN=C2N(c2c(C)cccc2Cl)C3=O)cc(Cl)c1N1CCN(C)CC1` [Example 173, 6-(2-Chloro-6-methylphenyl)-2-((3-chloro-5-methyl-4-(4-methylpiperazin-1-yl)phenyl)amino)-8,9-dihydroimidazo[1,2-a]pyrimido[5,4-e]pyrimidin-5(6H)-one]: the figures for the “Inh. (%) of Wee1 kinase enzyme activity” value in test [1] (C 0.01 μm compound), in test [1] (C 0.1 μm compound) and in test [1] (C 1 μm compound) were 26%, 71% and 94%, respectively. Also, the concentration for half-maximal inhibition (IC50) in test [2] turned out to be 99.2 nM; in test [3] (NCI-H1299, NCI-H1299 cells) it was 226 nM.
With `CN1CCN(c2ccc(Nc3ncc4c(n3)N3CCN=C3N(c3c(F)cccc3Cl)C4=O)c(Cl)c2)CC1` [Example 38, 6-(2-Chloro-6-fluorophenyl)-2-((2-chloro-4-(4-methylpiperazin-1-yl)phenyl)amino)-8,9-dihydroimidazo[1,2-a]pyrimido[5,4-e]pyrimidin-5(6H)-one], the “Inh. (%) of Wee1 kinase enzyme activity” value in test [1] (C 1 μm compound) turned out to be 34%. The IC50 in test [2] is more than 100000 nM; in test [3] (NCI-H1299 cells) it was more than 10000 nM.
Consider `O=C1c2cnc(Nc3ccc(-n4ccnc4)cc3)nc2N2CCN=C2N1c1c(F)cccc1Cl` [Example 102, 6-(2-Chloro-6-fluorophenyl)-2-((4-(1H-imidazol-1-yl)phenyl)amino)-8,9-dihydroimidazo[1,2-a]pyrimido[5,4-e]pyrimidin-5(6H)-one], for which, in test [1] (C 1 μm compound), the “Inh. (%) of Wee1 kinase enzyme activity” value was determined as 7%. Besides, the IC50 was more than 100000 nM in test [2] and more than 10000 nM in test [3] (NCI-H1299 cells).
In the case of `CN1CCN(c2ccc(Nc3ncc4c(n3)N3CCN=C3N(c3cccs3)C4=O)cc2)CC1` [Example 23, 2-((4-(4-Methylpiperazin-1-yl)phenyl)amino)-6-(thiophen-2-yl)-8,9-dihydroimidazo[1,2-a]pyrimido[5,4-e]pyrimidin-5(6H)-one], in test [1] (C 1 μm compound), the “Inh. (%) of Wee1 kinase enzyme activity” value is recorded as 22%. Besides, the IC50 in test [2] is more than 3000 nM; in test [3] (NCI-H1299 cells), more than 10000 nM.
In the case of `CN1Cc2cc(Nc3ncc4c(n3)N3CCN=C3N(c3c(Cl)cccc3Cl)C4=O)ccc2C2(CC2)C1` [Example 14, 6-(2,6-Dichlorophenyl)-2-((2′-methyl-2′,3′-dihydro-1′H-spiro[cyclopropane-1,4′-isoquinolin]-7′-yl)amino)-8,9-dihydroimidazo[1,2-a]pyrimido[5,4-e]pyrimidin-5(6H)-one], the results for the “Inh. (%) of Wee1 kinase enzyme activity” value in test [1] (C 0.01 μm compound), in test [1] (C 0.1 μm compound) and in test [1] (C 1 μm compound) were 12%, 86% and 92%, respectively. Also, the IC50 turned out to be 149 nM in test [2] and 98.7 nM in test [3] (NCI-H1299 cells).
Take `CC(=O)N1CCN(c2ccc(Nc3ncc4c(n3)N3CCN=C3N(c3c(F)cccc3Cl)C4=O)cc2)CC1` [Example 7, 2-((4-(4-Acetylpiperazin-1-yl)phenyl)amino)-6-(2-chloro-6-fluorophenyl)-8,9-dihydroimidazo[1,2-a]pyrimido[5,4-e]pyrimidin-5(6H)-one]: the “Inh. (%) of Wee1 kinase enzyme activity” value in test [1] (C 0.01 μm compound) worked out at 31%; in test [1] (C 0.1 μm compound) it was 84%; in test [1] (C 1 μm compound), 96%. Moreover, the IC50 came out at 1430 nM in test [2] and 1260 nM in test [3] (NCI-H1299 cells).
For the compound `Cc1cc(Nc2ncc3c(n2)N2CCN=C2N(c2c(F)cccc2Cl)C3=O)ccc1N1C[C@@H](C)N(C(C)C)[C@@H](C)C1` [Example 53, 6-(2-Chloro-6-fluorophenyl)-2-((4-((3S,5R)-4-isopropyl-3,5-dimethylpiperazin-1-yl)-3-methylphenyl)amino)-8,9-dihydroimidazo[1,2-a]pyrimido[5,4-e]pyrimidin-5(6H)-one], the “Inh. (%) of Wee1 kinase enzyme activity” value in test [1] (C 0.01 μm compound) worked out at 13%; in test [1] (C 0.1 μm compound), 82%; in test [1] (C 1 μm compound), 91%. In addition, the IC50 in test [2] turned out to be 85.5 nM; in test [3] (NCI-H1299, NCI-H1299 cells), 145 nM.
On to `CN1CCN(c2ccc(Nc3ncc4c(n3)N3CCN=C3N(c3c(Cl)cccc3Br)C4=O)cc2Cl)CC1` [Example 161, 6-(2-Bromo-6-chlorophenyl)-2-((3-chloro-4-(4-methylpiperazin-1-yl)phenyl)amino)-8,9-dihydroimidazo[1,2-a]pyrimido[5,4-e]pyrimidin-5(6H)-one], for which the figures for the “Inh. (%) of Wee1 kinase enzyme activity” value in test [1] (C 0.01 μm compound), in test [1] (C 0.1 μm compound) and in test [1] (C 1 μm compound) were 27%, 72% and 97%, respectively. Further, the 50% inhibitory concentration (IC50) in test [2] turned out to be 93.3 nM; in test [3] (NCI-H1299 cells), 217 nM.
On to `CN1CCN(c2ccc(Nc3ncc4c(n3)N3CCN=C3N(C(C)(C)C)C4=O)cc2)CC1` [Example 19, 6-(Tert-butyl)-2-((4-(4-methylpiperazin-1-yl)phenyl)amino)-8,9-dihydroimidazo[1,2-a]pyrimido[5,4-e]pyrimidin-5(6H)-one], for which the “Inh. (%) of Wee1 kinase enzyme activity” value in test [1] (C 1 μm compound) is 7%. Besides, the IC50 in test [2] was more than 100000 nM; in test [3] (NCI-H1299 cells) it was more than 10000 nM.
For `CN1CCN(c2ccc(Nc3ncc4c(n3)N3CCN=C3N(C3CC3)C4=O)cc2)CC1` [Example 20, 6-Cyclopropyl-2-((4-(4-methylpiperazin-1-yl)phenyl)amino)-8,9-dihydroimidazo[1,2-a]pyrimido[5,4-e]pyrimidin-5(6H)-one] the same measures were 9%, more than 100000 nM and more than 10000 nM.
